What all share (assay type): biochemical
The target of one assay is CSNK1D (Homo sapiens (Human), UniProt P48730). The experiment in a line: CSNK1D Assay (ADP-Glo, 1 μM ATP). To be noted: median, read-out: CSNK1D IC50 [mol/l] (median). A digest of the protocol: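 Enzyme preincubated with compound 15 min at 22° C in 50 mM HEPES pH 7.5 buffer with 10 mM MgCl2, 1 mM DTT; kinase reaction run at 1 μM ATP with biotinylated peptide substrate. ADP formed was detected by ADP-Glo luminescence as the measure of activity.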
In general terms: ADP-Glo turns the ADP formed in a reaction into a luminescent signal.

In assay [1] the target is wild-type Epidermal Growth Factor Receptor (EGFR) (Homo sapiens (Human), UniProt P00533). The experiment in a line: WT-EGFR Kinase Assay (TR-FRET, 2 mM ATP). A digest of the protocol: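 GST-tagged human EGFR (R669–A1210, Sf9-expressed) preincubated 15 min at 22° C with compound in pH 7.0 Hepes/MgCl2 buffer, then reacted at 2 mM ATP with a biotinylated peptide substrate. Phosphorylation detected by TR-FRET (streptavidin-XL665, Tb-cryptate anti-phosphotyrosine) as the 665/620 nm emission ratio.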
(In general: Time-resolved FRET reads energy transfer from a long-lived donor to a nearby acceptor.)

For the next assay, the target named is CSNK1A1 (Homo sapiens (Human), UniProt P48729). The experiment in a line: CSNK1A1 Assay 2 (ADP-Glo, 1 μM ATP). To be noted: median, read-out: CSNK1A1 Assay 2 IC50 [mol/l] (median). The procedure, abridged: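 Enzyme (~0.0375 ng/μL) preincubated 15 min at 22° C with compound in HEPES pH 7.5 buffer, then reacted with 1 μM ATP and biotin-Ahx-KRRRAL-pS-VASLPGL peptide. ADP product measured by ADP-Glo luminescence after 1 h ATP depletion and 1 h detection at 22° C.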

Where [2] appears, read: EGFR Wildtyp 2 mM ATP IC50 [mol/l] (median), median or individual measurements.
Where [3] appears, read: read-out: EGFR Wildtyp 2 mM ATP IC50 [mol/l] (median), median or individual measurements.

Like-named read-outs stand apart in the source and are kept apart here.

Sequence of CSNK1A1 (P48729 whole entry): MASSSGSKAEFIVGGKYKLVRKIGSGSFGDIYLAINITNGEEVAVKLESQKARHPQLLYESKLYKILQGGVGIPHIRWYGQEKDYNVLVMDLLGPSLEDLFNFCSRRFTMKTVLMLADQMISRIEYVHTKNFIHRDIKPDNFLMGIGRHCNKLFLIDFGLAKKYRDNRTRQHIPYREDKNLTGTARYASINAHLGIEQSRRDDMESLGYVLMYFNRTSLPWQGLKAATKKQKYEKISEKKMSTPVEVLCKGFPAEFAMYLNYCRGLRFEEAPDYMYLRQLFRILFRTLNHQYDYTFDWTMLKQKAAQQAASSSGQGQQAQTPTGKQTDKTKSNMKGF
Sequence of wild-type Epidermal Growth Factor Receptor (EGFR) (P00533 669-1210): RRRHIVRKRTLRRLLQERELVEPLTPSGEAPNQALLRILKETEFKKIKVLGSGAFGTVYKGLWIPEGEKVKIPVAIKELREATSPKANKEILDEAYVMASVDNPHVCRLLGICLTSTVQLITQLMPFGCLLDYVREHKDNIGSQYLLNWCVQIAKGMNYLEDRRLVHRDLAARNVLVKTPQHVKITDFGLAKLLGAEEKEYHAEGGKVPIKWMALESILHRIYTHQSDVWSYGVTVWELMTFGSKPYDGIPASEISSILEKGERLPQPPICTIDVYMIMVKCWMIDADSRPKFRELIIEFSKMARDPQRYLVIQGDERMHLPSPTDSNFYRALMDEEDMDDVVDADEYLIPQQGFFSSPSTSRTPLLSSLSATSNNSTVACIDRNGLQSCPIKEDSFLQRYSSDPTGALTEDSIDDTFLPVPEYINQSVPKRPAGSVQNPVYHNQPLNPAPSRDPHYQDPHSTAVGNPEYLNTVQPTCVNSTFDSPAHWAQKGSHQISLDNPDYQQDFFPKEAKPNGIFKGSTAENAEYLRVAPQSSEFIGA
Sequence of CSNK1D (P48730 whole entry): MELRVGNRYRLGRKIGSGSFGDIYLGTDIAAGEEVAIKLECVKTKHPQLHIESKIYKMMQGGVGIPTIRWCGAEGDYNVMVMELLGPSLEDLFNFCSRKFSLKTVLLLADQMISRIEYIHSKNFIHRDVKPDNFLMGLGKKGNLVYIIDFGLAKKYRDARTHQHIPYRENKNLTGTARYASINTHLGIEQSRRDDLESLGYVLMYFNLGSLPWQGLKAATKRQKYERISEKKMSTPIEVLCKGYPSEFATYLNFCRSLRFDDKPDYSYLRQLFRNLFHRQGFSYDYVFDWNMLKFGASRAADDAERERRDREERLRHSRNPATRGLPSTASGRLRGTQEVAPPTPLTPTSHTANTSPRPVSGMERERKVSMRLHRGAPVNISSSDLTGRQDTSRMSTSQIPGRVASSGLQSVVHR

Consider `CN1C(=O)c2c([nH]c(-c3ccnc(NC(=O)C(CC(F)F)c4ccc(F)cc4)c3)c2-c2ccc(F)cc2)CC12CC2` (racemic) [Example 81, 4,4-difluoro-2-(4-fluorophenyl)-N-{4-[3′-(4-fluorophenyl)-5′-methyl-4′-oxo-1′,4′,5′,7′-tetrahydro-spiro[cyclopropane-1,6′-pyrrolo[3,2-c]pyridin]-2′-yl]pyridin-2-yl}butanamide], for which the IC50 at CSNK1D is 4.3 nM; in assay [1] (setting [2]), above 20000 nM; at CSNK1A1, 4.6 nM.

Consider `CC(C(=O)Nc1cc(-c2[nH]c3c(c2-c2ccc(F)cc2F)C(=O)N(C)CC3)ccn1)c1ccc(F)cc1` (single isomer, unassigned) [Example 70, N-{4-[3-(2,4-difluorophenyl)-5-methyl-4-oxo-4,5,6,7-tetrahydro-1H-pyrrolo[3,2-c]pyridin-2-yl]pyridin-2-yl}-2-(4-fluorophenyl)propanamide], for which the IC50 on CSNK1D was 7.6 nM; in assay [1] (setting [2]), above 20000 nM; on CSNK1A1 it was 16 nM.

As for `CC(C(=O)Nc1cc(-c2[nH]c3c(c2-c2ccccc2)C(=O)N(C)CC3)ccn1)c1ccncc1` (racemic) [Example 153, (Rac)-N-[4-(5-methyl-4-oxo-3-phenyl-4,5,6,7-tetrahydro-1H-pyrrolo[3,2-c]pyridin-2-yl)pyridin-2-yl]-2-(pyridin-4-yl)propanamide], the IC50 on CSNK1D is 2.4 nM; in assay [1] (setting [2]) it was above 20000 nM; at CSNK1A1, 2 nM.

In the case of `COCCN(C)C(=O)c1ccc(CC(=O)Nc2cc(-c3[nH]c4ccn(C)c(=O)c4c3-c3ccc(F)cc3)ccn2)cc1` [Example 143, 4-[2-({4-[3-(4-fluorophenyl)-5-methyl-4-oxo-4,5-dihydro-1H-pyrrolo[3,2-c]pyridin-2-yl]pyridin-2-yl}amino)-2-oxoethyl]-N-(2-methoxyethyl)-N-methylbenzamide], the IC50 is 2.7 nM at CSNK1D, above 20000 nM in assay [1] (setting [3]) and 4 nM at CSNK1A1.

`CC(C(=O)Nc1cc(-c2[nH]c3ccn(C)c(=O)c3c2-c2cc(F)ccc2F)ccn1)c1ccc(F)cc1` (racemic) [Example 120, N-{4-[3-(2,5-difluorophenyl)-5-methyl-4-oxo-4,5-dihydro-1H-pyrrolo[3,2-c]pyridin-2-yl]pyridin-2-yl}-2-(4-fluorophenyl)propanamide]: the IC50 at CSNK1D was 8.1 nM; in assay [1] (setting [2]) it was above 20000 nM; on CSNK1A1, 6.5 nM.

Turning to `CC(C(=O)Nc1cc(-c2[nH]c3ccn(C)c(=O)c3c2-c2cccnc2F)ccn1)c1ccc(F)cc1` (racemic) [Example 110, 2-(4-fluorophenyl)-N-{4-[3-(2-fluoropyridin-3-yl)-5-methyl-4-oxo-4,5-dihydro-1H-pyrrolo[3,2-c]pyridin-2-yl]pyridin-2-yl}propanamide], the IC50 at CSNK1D was 21 nM; in assay [1] (setting [2]), above 20000 nM; at CSNK1A1, 30 nM.

With `CC1(C)Cc2[nH]c(-c3ccnc(NC(=O)Cc4ccc(F)cc4)c3)c(-c3cccnc3)c2C(=O)N1` [Example 93, N-{4-[6,6-dimethyl-4-oxo-3-(pyridin-3-yl)-4,5,6,7-tetrahydro-1H-pyrrolo[3,2-c]pyridin-2-yl]pyridin-2-yl}-2-(4-fluorophenyl)acetamide], the IC50 on CSNK1D is 9.3 nM; in assay [1] (setting [3]), above 20000 nM; at CSNK1A1 it was 4 nM.

As to `Cn1ccc2[nH]c(-c3ccnc(NC(=O)C(CC(F)F)c4ccc(F)cc4)c3)c(-c3ccc(Cl)s3)c2c1=O` (racemic) [Example 133, N-{4-[3-(5-chloro-2-thienyl)-5-methyl-4-oxo-4,5-dihydro-1H-pyrrolo[3,2-c]pyridin-2-yl]pyridin-2-yl}-4,4-difluoro-2-(4-fluorophenyl)butanamide], the IC50 on CSNK1D is 4.8 nM; in assay [1] (setting [2]), above 20000 nM; at CSNK1A1, 2.3 nM.

Take `CC(C(=O)Nc1cc(-c2[nH]c3ccn(C)c(=O)c3c2-c2ccc(F)nc2)ccn1)c1ccc(F)cc1` (racemic) [Example 145, 2-(4-fluorophenyl)-N-{4-[3-(6-fluoropyridin-3-yl)-5-methyl-4-oxo-4,5-dihydro-1H-pyrrolo[3,2-c]pyridin-2-yl]pyridin-2-yl}propanamide]: the IC50 on CSNK1D is 10 nM; in assay [1] (setting [2]), above 20000 nM; on CSNK1A1, 9.7 nM.

In the case of `CC1(C)Cc2[nH]c(-c3ccnc(NC(=O)Cc4ccc(F)cc4)c3)c(-c3ccc(Cl)cc3)c2C(=O)N1` [Example 90, N-{4-[3-(4-chlorophenyl)-6,6-dimethyl-4-oxo-4,5,6,7-tetrahydro-1H-pyrrolo[3,2-c]pyridin-2-yl]pyridin-2-yl}-2-(4-fluorophenyl)acetamide], the IC50 on CSNK1D was 4.1 nM; in assay [1] (setting [3]), above 20000 nM; at CSNK1A1 it was 3.2 nM.

For `O=C(Nc1cc(-c2[nH]c3ccn(C4CC4)c(=O)c3c2-c2ccc(F)cc2)ccn1)C(CC(F)F)c1ccc(F)cc1` (racemic) [Example 134, N-{4-[5-cyclopropyl-3-(4-fluorophenyl)-4-oxo-4,5-dihydro-1H-pyrrolo[3,2-c]pyridin-2-yl]pyridin-2-yl}-4,4-difluoro-2-(4-fluorophenyl)butanamide], the IC50 on CSNK1D was 7 nM; in assay [1] (setting [2]), above 20000 nM; on CSNK1A1 it was 5.5 nM.

Turning to `CC(C(=O)Nc1cc(-c2[nH]c3c(c2-c2ccccc2F)C(=O)NC(C)(C)C3)ccn1)c1ccc(F)cc1` (stereo not drawn) [Example 87, 2-(4-fluorophenyl)-N-{4-[3-(2-fluorophenyl)-6,6-dimethyl-4-oxo-4,5,6,7-tetrahydro-1H-pyrrolo[3,2-c]pyridin-2-yl]pyridin-2-yl}propanamide], the IC50 is 13 nM on CSNK1D, above 20000 nM in assay [1] (setting [3]) and 12 nM at CSNK1A1.

In the case of `CC(C(=O)Nc1cc(-c2[nH]c3ccn(C)c(=O)c3c2-c2cc(F)ccc2C#N)ccn1)c1ccc(F)cc1` (racemic) [Example 127, N-{4-[3-(2-cyano-5-fluorophenyl)-5-methyl-4-oxo-4,5-dihydro-1H-pyrrolo[3,2-c]pyridin-2-yl]pyridin-2-yl}-2-(4-fluorophenyl)propanamide], the IC50 on CSNK1D is 33 nM; in assay [1] (setting [2]), above 20000 nM; at CSNK1A1, 33 nM.

Take `O=C(Nc1cc(-c2[nH]c3ccn(C4CC4)c(=O)c3c2-c2ccccc2)ccn1)C(CC(F)F)c1ccc(F)cc1` (single isomer, unassigned) [Example 158, (2R or S)—N-[4-(5-cyclopropyl-4-oxo-3-phenyl-4,5-dihydro-1H-pyrrolo[3,2-c]pyridin-2-yl)pyridin-2-yl]-4,4-difluoro-2-(4-fluorophenyl)butanamide]: the IC50 on CSNK1D was 5.1 nM; in assay [1] (setting [3]), above 20000 nM; at CSNK1A1 it was 3.2 nM.

With `Cn1cc(CC(F)F)c2[nH]c(-c3ccnc(NC(=O)C(CC(F)F)c4ccc(F)cc4)c3)c(-c3ccccc3)c2c1=O` (single isomer, unassigned) [Example 148, N-{4-[7-(2,2-difluoroethyl)-5-methyl-4-oxo-3-phenyl-4,5-dihydro-1H-pyrrolo[3,2-c]pyridin-2-yl]pyridin-2-yl}-4,4-difluoro-2-(4-fluorophenyl)butanamide], the figures for the IC50 (on CSNK1D; in assay [1] (setting [2]); on CSNK1A1) were 6.8 nM, 8750 nM and 12 nM, respectively.

Regarding `Cc1c(-c2ccnc(NC(=O)C(C)c3ccc(F)cc3)c2)[nH]c2ccn(C)c(=O)c12` (racemic) [Example 132, N-[4-(3,5-dimethyl-4-oxo-4,5-dihydro-1H-pyrrolo[3,2-c]pyridin-2-yl)pyridin-2-yl]-2-(4-fluorophenyl)propanamide], the IC50 was 11 nM at CSNK1D, above 20000 nM in assay [1] (setting [2]) and 6.3 nM at CSNK1A1.

On to `CC(C(=O)Nc1cc(-c2[nH]c3ccn(C)c(=O)c3c2-c2ccccc2)ccn1)c1ccc(F)cc1` (single isomer, unassigned) [Example 105, 2-(4-fluorophenyl)-N-[4-(5-methyl-4-oxo-3-phenyl-4,5-dihydro-1H-pyrrolo[3,2-c]pyridin-2-yl)pyridin-2-yl]propanamide], for which the IC50 on CSNK1D was determined as 1.5 nM; in assay [1] (setting [2]) it was 8220 nM; at CSNK1A1, 0.71 nM.

For `CC1(C)Cc2[nH]c(-c3ccnc(NC(=O)Cc4ccc(F)cc4)c3)c(-c3ccccc3)c2C(=O)N1` [Example 82, N-[4-(6,6-dimethyl-4-oxo-3-phenyl-4,5,6,7-tetrahydro-1H-pyrrolo[3,2-c]pyridin-2-yl)pyridin-2-yl]-2-(4-fluorophenyl)acetamide], the values for the IC50 (at CSNK1D; in assay [1] (setting [3]); on CSNK1A1) were 2.4 nM, above 20000 nM and 1.3 nM, respectively.

As to `CC(C(=O)Nc1cc(-c2[nH]c3c(c2-c2ccc(F)cc2)C(=O)NC(C)(C)C3)ccn1)c1ccc(F)cc1` (single isomer, unassigned) [Example 96, 2-(4-fluorophenyl)-N-{4-[3-(4-fluorophenyl)-6,6-dimethyl-4-oxo-4,5,6,7-tetrahydro-1H-pyrrolo[3,2-c]pyridin-2-yl]pyridin-2-yl}propanamide], the figures for the IC50 (on CSNK1D; in assay [1] (setting [3]); at CSNK1A1) were 2 nM, above 20000 nM and 1.3 nM, respectively.

Values taken from patent US20230322767A1, “ARYL SUBSTITUTED PYRROLO-PYRIDINONES AND THERAPEUTIC USES THEREOF” (Bayer Aktiengesellschaft, priority 2020, published 2023).
